Data on 1 compound can be found in patent US20120028917A1, “Use Of N-(4-((3-(2-Amino-4-Pyrimidinyl)-2-Pyridinyl)Oxy)Phenyl)-4-(4-Methyl-2-Thienyl)-1-Phthalazinamine In The Treatment Of Antimitotic Agent Resistant Cancer” (Amgen Inc., priority 2009, published 2012).

Assay [1] deals with NCI-H460-Taxol-r xenograft. As to the kind of experiment: Xenograft tumor growth inhibition (Example 3). Type of assay: in vivo, athymic nude mice. The note with it: Lung, oral BID, best of intermittent or continuous dose schedule. The method, then:
(§1) To investigate whether AMG 900-induced suppression of aurora kinase activity inhibits cell proliferation, the antiproliferative efficacy of AMG 900 was evaluated in-vivo in multiple human cancer xenograft models, including breast, colon, leukemia, lung, pancreatic, and uterine cancer models, grown in athymic nude mice. Mice were administered AMG 900 orally at 3.75, 7.5, or 15 mg/kg BID for 2 consecutive days per week or 3 mg/kg BID everyday for the duration of the study beginning when tumors were established. The reagents, solutions, equipment, formulation of AMG 900, tumor volume measurements and calculations were generally as described in Example 4 below.
(§2) The effect of AMG 900 was tested on the multidrug resistant cell line MES-SA Dx5 grown in vivo as a tumor xenograft. Mice were administered AMG 900 orally at 15 mg/kg BID for 2 consecutive days per week or 3.0 mg/kg BID everyday for the duration of the study. Dosing was initiated when tumors were established (10 days after tumor implantation).

In assay [2] the test system is HCT15 xenograft. As to the kind of experiment: Xenograft tumor growth inhibition (Example 3). The assay is classed as in vivo, athymic nude mice. The note with it: HCT15, Colon; oral BID, best of intermittent or continuous dose schedule. As to the method:
as §1, §2

In assay [3] the test system is three matched taxol-resistant and -sensitive tumor cell lines. As to the kind of experiment: Matched taxol-resistant and -sensitive tumor cell lines (summary). The conditions noted are these: Homo sapiens; all three matched taxol-resistant and -sensitive tumor cell lines. The assay is classed as cell-based. As to the method:
MES-SA Dx5 and MES-SA cells were plated at a density of 10,000 cells/well onto 96-well plate in complete media and cultured for 24 hours. […] Cells were washed and fixed by adding 100 μL of 2× formaldehyde fixation buffer for 10 minutes and room temperature. […] Cells were immunostained with p-histone H3 antibody (5 μg/mL) and incubated at room temperature for 2 hours. Cells were washed in 100 μL of wash buffer. Next, cells were incubated with a goat anti-rabbit alexa-488 conjugated antibody (1.5 μg/mL) in wash buffer supplemented with Hoechest DNA dye (1 μg/mL) and incubated at room temperature in the dark for 30 minutes. Cells were washed twice with 100 μL of wash buffer. The 96-well plates were analyzed on an ArrayScan VTi (Cellomics) using a bioapplication algorithm (TargetActivation.V2). […] NCI-H460 parental and NCI-H460 taxol-resistant cells were seeded at a density of 500,000 cells/well in a 6-well plate in 2 mL of appropriate complete media. The next day cells were treated with AMG 900 or taxol over a 6-point concentration range with a final DMSO concentration of 0.05% in media. After 24 hours, cells were pulsed with BrdU (1:100 dilution) and harvested. […] Data was acquired and analyzed by flow cytomety (LSRII). […] The +4N (same as ≧4N) DNA content or SubG1 cellular EC50 values were calculated using a 4-parameter equation. […] Data was acquired and analyzed by flow cytometry (LSRII). […]

Assay [4] has as its system MCF-7. As to the kind of experiment: Cellular EC50, additional cell lines (Table 6-B). Type of assay: cell-based, human. The note with it: Homo sapiens, MCF7; MCF-7, Breast. The method, then: (§3) All high-content cell assays were performed on an ArrayScan VTi HCS Reader (Cellomics). Tumor cell lines were treated with AMG 900, AZD1152, MK-0457, or PHA-739358 (concentration range varied based on potency). The cells were prepared for intracellular staining with an anti-p-histone H3 Ser^10 antibody as previously described (1). Detection was performed with an anti-rabbit IgG-alexa-568 antibody and DAPI. The cellular levels of p-histone H3 were analyzed using Target Activation V2 algorithm (Cellomics) to determine the percentage of positive cells. For the imaging assays, the concentration-response curves and corresponding IC50 and EC50 values were calculated using the percentage of cells affected versus the DMSO control.
(§4) Tumor cells were treated with AMG 900, AZD1152, MK-0457, or PHA-739358 (range concentration varied based on potency) for 24 hours and processed for cell-cycle analysis (DNA staining only) as previously described (1). Cells were analyzed on a LSRII flow cytometer using BD FACS Diva software. The concentration-response curves and corresponding EC50 values were calculated using the percentage of cells with ≧4N DNA content versus the DMSO control.

Assay [5] has as its system HCT15. As to the kind of experiment: Cellular EC50, additional cell lines (Table 6-B). The assay is classed as cell-based, human. The conditions noted are these: Homo sapiens, HCT-15, Colon, P-gp+. As to the method: as §3, §4

The structures appear in SMILES notation.

The EC50 is the concentration giving half of the maximal effect. The low end stands for greater potency, the high end for weaker potency.

For `Cc1csc(-c2nnc(Nc3ccc(Oc4ncccc4-c4ccnc(N)n4)cc3)c3ccccc23)c1` [AMG 900, N-(4-((3-(2-amino-4-pyrimidinyl)-2-pyridinyl)oxy)phenyl)-4-(4-methyl-2-thienyl)-1-phthalazinamine], the entries for the “% TGI (tumor growth inhibition)” value in assay [1] and in assay [2] were 66% and 51%, respectively. In addition, the results for the EC50 in assay [3], in assay [4] and in assay [5] were below 2 nM, 1 nM and 2 nM, respectively.
